# Laboratory results reported in patent US20240261261A1, “NEW FORMULATION FOR INJECTION COMPRISING 1-(5-(2,4-DIFLUOROPHENYL)-1-((3-FLUOROPHENYL)SULFONYL)-4-METHOXY-1H-PYRROL-3-YL)-N-METHYLMETHANAMINE” (DAEWOONG PHARMACEUTICAL CO., LTD., priority 2021, published 2024).
# Experiment: Water solubility
# Type: physicochemical
# Settings: aqueous buffer, pH 6.8, the substance or its hydrochloride
compound,measurement,value
"CNCc1cn(S(=O)(=O)c2cccc(F)c2)c(-c2ccc(F)cc2F)c1OC [Chemical Formula 1, 1-(5-(2,4-difluorophenyl)-1-((3-fluorophenyl)sulfonyl)-4-methoxy-1H-pyrrol-3-yl)-N-methylmethanamine]",solubility,2170 µg/mL
